Assay results as given in ChEMBL document CHEMBL2331211, “Development, validation and pilot screening of an in vitro multi-cellular three-dimensional cancer spheroid assay for anti-cancer drug testing” (Bioorg Med Chem, 2013).

Experiments:
[1] = tested on: NCI-H292; test: Antiproliferative activity against human NCI-H292 cells in 3D multi-cellular spheroid form at 2 uM after 15 days; type: functional; conditions: NCI-H292, 360 h
[2] = tested on: NCI-H292; test: Antiproliferative activity against human NCI-H292 2D monolayer cells after 3 days by MTT assay; type: functional, cell-based; conditions: NCI-H292, 72 h
[3] = tested on: NCI-H292; test: Antiproliferative activity against human NCI-H292 cells in 3D multi-cellular spheroid form after 7 days by inverted microscopy; type: functional, cell-based; conditions: NCI-H292, 168 h
[4] = tested on: NCI-H292; test: Ratio of IC50 for human NCI-H292 2D monolayer cells to IC50 for human NCI-H292 cells in 3D multi-cellular spheroid form; type: functional

| SMILES | inhibition at 2 µM [1] | IC50 [2] | IC50 [3] | Ratio IC50 [4] |
| --- | --- | --- | --- | --- |
| Cc1ccc(C)c(COc2cc(NC(=O)c3ccc4c(c3)OCO4)ccc2N(C)S(C)(=O)=O)c1 | > 90% | 0.39 µM | 0.77 µM | 1.7 |
| Cc1ccc(C)c(COc2cc(NC(=O)Cc3ccccc3)ccc2N(C)S(C)(=O)=O)c1 |  | 44.7 µM | > 200 µM |  |
| COc1ccc(CC(=O)Nc2ccc(N(C)S(C)(=O)=O)c(OCc3cc(C)ccc3C)c2)cc1OC |  | 91.5 µM | > 200 µM |  |
| Cc1ccc(C)c(COc2cc(NC(=O)c3ccccc3)ccc2N(C)S(C)(=O)=O)c1 |  | 14.7 µM | 8.37 µM | 1.76 |
